Experimental data reported in article PMC8922279, “Identification of β-Lactams Active against Mycobacterium tuberculosis by a Consortium of Pharmaceutical Companies and Academic Institutions” (ACS Infectious Diseases, 2022).
Where two headings read alike, the source gives them in different places.

Key:
[1] = tested on: Mtb H37Rv; assay: MIC90 against replicating (R) Mtb H37Rv, with or without clavulanate; type: cell-based, Mycobacterium tuberculosis; conditions: Table S4; for Mtb H37Rv R + CLAV (MIC90): clavulanate 4 μg/mL; for Mtb H37Rv R (MIC90): no clavulanate
[2] = tested on: Mtb H37Rv; assay: MIC90 against nonreplicating (NR, 4-stress) Mtb H37Rv, with or without clavulanate; type: cell-based, Mycobacterium tuberculosis; conditions: 4-stress nonreplicating, Table S4; for Mtb H37Rv NR + CLAV (MIC90): clavulanate 4 μg/mL; for Mtb H37Rv NR (MIC90): no clavulanate
[3] = tested on: E. coli; assay: Microbial spectrum, E. coli; type: cell-based, Escherichia coli; conditions: clavulanate 4 μg/mL; Table S4
[4] = tested on: P. aeruginosa; assay: Microbial spectrum, P. aeruginosa; type: cell-based, Pseudomonas aeruginosa; conditions: clavulanate 4 μg/mL; Table S4
[5] = tested on: S. aureus; assay: Microbial spectrum, S. aureus; type: cell-based, Staphylococcus aureus; conditions: clavulanate 4 μg/mL; Table S4
[6] = tested on: C. albicans; assay: Microbial spectrum, C. albicans; type: cell-based, Candida albicans; conditions: no clavulanate; Table S4
[7] = tested on: HepG2 cells; assay: Cytotoxicity against HepG2 cells (CellTiter-Glo); type: cell-based, human; conditions: Table S4
Protocol: Compounds were tested for cytotoxicity against HepG2 cells as previously described.[48],[69],[70] Briefly, cells were exposed to compounds for 48–72 h, and viability was measured using CellTiter-Glo (Promega).

[8] = tested on: wild-type Mtb H37Rv; type: in vivo, 129sv DHP-1 knockout mice; conditions: 50 mg/kg sc bid + clavulanate 100 mg/kg po bid, days 9-15, lungs day 16; untreated day 16 mean 9.1
[9] = tested on: Caco-2 cells
[10] = uninfected DHP-1 mice
[11] = female, 129sv DHP-1 knockout, mouse, in vivo
[12] = in vivo; conditions: female, CD-1, mouse
[13] = in vivo; conditions: DHP-1 knockout, mouse, sc
[14] = in vivo; conditions: female, 129sv DHP-1 knockout, mouse, sc, 50 mg/kg
[15] = physchem; conditions: simulated gi fluid, pH 6.5, FaSSIF Stability, % remaining
[16] = physchem; conditions: simulated gi fluid, pH 1.2
[17] = in vitro; conditions: male, CD-1, mouse, plasma, Plasma stability % Remaining
[18] = in vitro; conditions: SD, rat, plasma, Plasma stability % Remaining
[19] = in vitro; conditions: beagle, dog, plasma
[20] = in vitro; conditions: monkey, plasma
[21] = in vitro; conditions: human, plasma, Plasma stability % Remaining
[22] = in vitro; conditions: human; for Papp A→B at 120 min, 3 μM / Papp B→A at 120 min, 3 μM: Caco-2, pH 7.4
[23] = in vitro; conditions: cynomolgus monkey, plasma, pH 7.4
[24] = in vitro; conditions: beagle, dog, plasma, pH 7.4
[25] = in vitro; conditions: CD-1, mouse, plasma, pH 7.4, % bound to plasma
[26] = in vitro; conditions: SD, rat, plasma, pH 7.4, % bound to plasma
[27] = in vitro; conditions: human, plasma, pH 7.4, % bound to plasma
[28] = Caco-2, pH 7.4, Caco-2 Mean Recovery % A to B
[29] = Caco-2, pH 7.4, Caco-2 Mean Recovery % B to A

O=C(Cc1cccs1)N[C@@H]1C(=O)N2C(C(=O)O)=C(CSc3cccc[n+]3[O-])CS[C@H]12 [TBBL-0000001]
Mtb H37Rv R + CLAV (MIC90) [1]: 1.7 µM
Mtb H37Rv R (MIC90) [1]: 3 µM
Mtb H37Rv NR + CLAV (MIC90) [2]: 2.2 µM
Mtb H37Rv NR (MIC90) [2]: 1.8 µM
E.coli R + CLAV (MIC90) [3]: 26.9 µM
P.aeruginosa R + CLAV (MIC90) [4]: > 100 µM
S.aureus R + CLAV (MIC90) [5]: 0.6 µM
C.albicans R (MIC90) [6]: > 100 µM
HepG2 LD50 [7]: 67.5 µM
Log10 CFU per mouse (lungs), Mean [8]: 8.8 Log10 CFU
Caco-2 Rank Papp [9]: Low
Comments (tolerability) ([10]; 300 mg/kg sc): Recovered at t= 8h
Tlast ([10]; 300 mg/kg sc): 2.0 to 4.0 h
Tlast [11]: 3.0 h
AUC(0-t) ([12]; iv, 5 mg/kg): 5590 ng·h/mL
Vd ([12]; iv, 5 mg/kg): 0.32 L/kg
clearance ([12]; iv, 5 mg/kg): 7.4 mL/min/kg
half-life ([12]; iv, 5 mg/kg): 30 min
k el ([12]; iv, 5 mg/kg): 0.000389 s⁻¹
AUC(0-t) ([12]; po, 25 mg/kg): 111 ng·h/mL
bioavailability ([12]; po, 25 mg/kg): 0.19%
AUC(0-t) ([13]; 300 mg/kg): 43000 ± 1680 ng·h/mL
Cmax ([13]; 300 mg/kg): 29800 ± 7140 ng/mL
Tmax ([13]; 300 mg/kg): 60 min
AUC(0-t) [14]: 38100 ng·h/mL
Cmax [14]: 27800 ng/mL
Tmax [14]: 60 min
remaining at 24 h, 10 μM [15]: 114%
remaining at 1 h, 10 μM [16]: 102%
remaining at 24 h, 10 μM [16]: 116%
remaining at 2 h, 2 μM [17]: 79.6%
remaining at 2 h, 2 μM [18]: 80.6%
remaining at 2 h, 2 μM [19]: 54.7%
remaining at 2 h, 2 μM [20]: 117%
remaining at 2 h, 2 μM [21]: 77.3%
Papp A→B at 120 min, 3 μM [22]: < 0.04 ×10⁻⁶ cm/s
Papp B→A at 120 min, 3 μM [22]: < 0.03 ×10⁻⁶ cm/s
recovery at 120 min, 3 μM [22, 28]: < 93.1%
recovery at 120 min, 3 μM [22, 29]: < 99.8%
fraction unbound at 4 h, 2 μM [23]: 0.166
fraction unbound at 4 h, 2 μM [24]: 0.529
fraction unbound at 4 h, 2 μM [25]: 0.374
fraction unbound at 4 h, 2 μM [26]: 0.369
fraction unbound at 4 h, 2 μM [27]: 0.22

O=C(O)C1=C(CSc2cccc[n+]2[O-])CS[C@@H]2[C@H](NC(=O)/C(=N\Oc3ccccc3)c3ccco3)C(=O)N12 [TBBL-0000005]
Mtb H37Rv R + CLAV (MIC90) [1]: 2.7 µM
Mtb H37Rv R (MIC90) [1]: 2.9 µM
Mtb H37Rv NR + CLAV (MIC90) [2]: 1.5 µM
Mtb H37Rv NR (MIC90) [2]: 1.8 µM
E.coli R + CLAV (MIC90) [3]: > 100 µM
P.aeruginosa R + CLAV (MIC90) [4]: > 100 µM
S.aureus R + CLAV (MIC90) [5]: 0.8 µM
C.albicans R (MIC90) [6]: > 100 µM
HepG2 LD50 [7]: 88.7 µM
Log10 CFU per mouse (lungs), Mean [8]: 8.9 Log10 CFU
Caco-2 Rank Papp [9]: Low
Comments (tolerability) ([10]; 50 mg/kg sc): No side effects
Tlast ([10]; 50 mg/kg sc): 2.0 to 4.0 h
Tlast [11]: 6.0 h
AUC(0-t) ([12]; iv, 5 mg/kg): 3330 ng·h/mL
Vd ([12]; iv, 5 mg/kg): 0.23 L/kg
clearance ([12]; iv, 5 mg/kg): 5 mL/min/kg
half-life ([12]; iv, 5 mg/kg): 32.4 min
k el ([12]; iv, 5 mg/kg): 0.000356 s⁻¹
AUC(0-t) ([12]; po, 25 mg/kg): 97 ng·h/mL
bioavailability ([12]; po, 25 mg/kg): 0.11%
AUC(0-t) ([13]; 50 mg/kg): 18200 ± 7180 ng·h/mL
Cmax ([13]; 50 mg/kg): 26600 ± 10000 ng/mL
Tmax ([13]; 50 mg/kg): 15 to 30 min
AUC(0-t) [14]: 7920 ng·h/mL
Cmax [14]: 4130 ng/mL
Tmax [14]: 30 min
remaining at 6 h, 10 μM ([15]; 6h): 98.7%
remaining at 24 h, 10 μM [15]: 98.5%
remaining at 1 h, 10 μM [16]: 120%
remaining at 24 h, 10 μM [16]: 76.6%
remaining at 2 h, 2 μM [17]: 60.6%
remaining at 2 h, 2 μM [18]: 35.2%
remaining at 2 h, 2 μM [19]: 51.3%
remaining at 2 h, 2 μM [20]: 108%
remaining at 2 h, 2 μM [21]: 73.7%
Papp A→B at 120 min, 3 μM [22]: < 0.33 ×10⁻⁶ cm/s
Papp B→A at 120 min, 3 μM [22]: < 0.28 ×10⁻⁶ cm/s
recovery at 120 min, 3 μM [22, 28]: < 88.9%
recovery at 120 min, 3 μM [22, 29]: < 89.8%
fraction unbound at 4 h, 2 μM [23]: 0.06
fraction unbound at 4 h, 2 μM [24]: 0.186
fraction unbound at 4 h, 2 μM [25]: 0.06
fraction unbound at 4 h, 2 μM [26]: 0.121
fraction unbound at 4 h, 2 μM [27]: 0.129
